We go through two compounds from ChEMBL document CHEMBL1154222, “Ceratodictyols, 1-glyceryl ethers from the red alga-sponge association Ceratodictyon spongiosum/Haliclona cymaeformis” (J Nat Prod, 2009).

The test system of this experiment is HeLa. Nature of the experiment: Cytotoxicity against human HeLa cells. Type of experiment: functional, cell-based.

One may read the IC50 as the concentration at which inhibition is half-maximal. Higher therefore signals lower potency. Regarding `CCCCCCCCCCC(=O)/C=C/CCCOC[C@@H](O)CO` [CERATODICTYOL A], 67 µM corresponded to half-maximal inhibition (IC50). The compound `CCCCCCCCC/C=C/C(=O)CCCCOC[C@@H](O)CO` [CERATODICTYOL B] registered an IC50 of 67 µM. In other words, the double-digit micromolar range.
